Results taken from patent US10444224B2, “Method for RNA detection and quantification” (Cornell University, priority 2011, dated 2019).

Columns and labels:
HEK293 cells [1] = experiment: Nonspecific fluorescence activation by cellular components; format: cell-based; settings: 10 μM, 30 min
Description: HEK293 cells were grown on PLL-coated glass-bottom dishes (MatTek) in DMEM plus 10% FBS to ˜80% confluency. Media was removed, cells were washed twice with microscopy media (20 mM HEPES pH 7.4, 119 mM NaCl, 5 mM KCl, 2 mM CaCl2, 2 mM MgCl2, and 30 mM glucose) and then incubated for 30 min with microscopy media plus vehicle (0.2% DMSO) or 10 μM N,N-Dimethyl-4′-nitro-4-stilbenamine, thiazole orange, malachite green, or DFHBI. Live fluorescence images were then taken with a CoolSnap HQ2 CCD camera through a 40× oil objective mounted on a Nikon TE2000 microscope and analyzed with the NIS-Elements software.

HEK293 cells [2] = experiment: Cytotoxicity assay after illumination (MTT); format: cell-based; settings: 10 μM fluorophore, 10 min illumination
Description: HEK293 cells were grown on PLL-coated glass-bottom dishes as indicated above. At ˜80% confluency, the media was removed and cells were incubated for 30 min with fresh media alone, media plus vehicle (0.2% DMSO) or media plus 10 μM DMHBI, DFHBI or MG. Cells were then illuminated for 10 min at 37° C. with a Nikon Intensilight C-HGFIE 130 W mercury lamp with FITC (DMHBI and DFHBI) or Cy5 (malachite green) filter sets (Chroma Technology) on an inverted epifluorescence microscope. Control cells were illuminated for 10 min under identical conditions but in the absence of any fluorophore. Cells were then washed several times with media to remove fluorophores and assayed for mitochondrial activity with MTT (3-[4,5-dimethylthiazol-2-yl]-2,5-diphenyltetrazolium bromide) based cell proliferation kit (Roche) and prepared according to manufacturers instructions. MTT absorbance readings were performed at 550 nm with 650 nm absorbance used for background subtraction. Values are reported as percent change in viability compared to control samples (illumination without fluorophore or without vehicle) and each condition was repeated in triplicate and averaged.

[3] = Truncation and mutagenesis of 24-2, DFHBI fluorescence; format: biochemical; settings: with DFHBI
Description: Secondary structure prediction was performed using Mfold online software (Zuker, “Mfold Web Server for Nucleic Acid Folding and Hybridization Prediction,” Nucl. Acids Res. 31(13): 3406-3415 (2003), which is hereby incorporated by reference in its entirety). Mutated and truncated RNAs were created by ordering single stranded DNA templates (Integrated DNA Technologies) with the desired mutations or truncations and PCR amplifying these sequences to create double stranded DNA templates using primers which included a 5′ T7 promoter sequence. PCR products were then purified with PCR purification columns (Qiagen) and used as templates for in vitro T7 transcription reactions (Epicentre).

Row | Molecule | nonspecific fluorescence activation upon incubation with cells (HEK293 cells [1]) | cytotoxicity / phototoxicity upon illumination (HEK293 cells [2]) | fluorescence relative to full-length 24-2 [3] [%]
1 | CC1=NC(=Cc2cc(F)c(O)c(F)c2)C(=O)N1C [DFHBI, 4-(3,5-difluoro-4-hydroxybenzylidene)-1,2-dimethyl-imidazol-5-one] | does not exhibit nonspecific fluorescence activation | negligible phototoxicity | 
2 | 24-2-min: final truncated (minimized) 24-2 sequence (nucleic acid, listed as RNA, chemistry not given here) GACGCGACCGAAAUGGUGAAGGACGGGUCCAGUGCUUCGGCACUGUUGAGUAGAGUGUGAGCUCCGUAACUGGUCGCGUC |  |  | ~95
